This note sets out measurements from patent US11161838B2, “Heterocyclic derivatives as PI3K inhibitors” (Incyte Corporation, priority 2018, dated 2021).

Counter-ions that a name gives are not always drawn.

Test [1] concerns the target PI3Kγ (p110γ) (Homo sapiens (Human), UniProt P48736). Description: PI3K-γ Scintillation Proximity Assay. In kind it is biochemical. The following applies: 20 μM PIP2, 2 μM ATP, 13 nM PI3Kγ, 120 min, room temperature. The text has this:
Example B. PI3K-γ Scintillation Proximity Assay
[γ-^33P]ATP (10 mCi/mL) and Wheat Germ Agglutinin (WGA) YSi SPA Scintillation Beads was purchased from Perkin Elmer (Waltham, Mass.). Lipid kinase substrate, D-myo-Phosphatidylinositol 4,5-bisphosphate (PtdIns(4,5)P2)D (+)-sn-1,2-di-O-octanoylglyceryl, 3-O-phospho linked (PIP2), CAS 204858-53-7, was purchased from Echelon Biosciences (Salt Lake City, Utah). PI3Kγ (p110γ) Recombinant Human Protein was purchased from Life technology (Grand Island, N.Y.). ATP, MgCl2, DTT, EDTA, MOPS and CHAPS were purchased from Sigma Aldrich (St. Louis, Mo.).
(§1) The kinase reaction was conducted in polystyrene 384-well Greiner Bio-one white plate from Thermo Fisher Scientific in a final volume of 25 μL. Inhibitors were first diluted serially in DMSO and added to the plate wells before the addition of other reaction components. The final concentration of DMSO in the assay was 2%. The PI3Kγ assay was carried out at room temperature in 20 mM MOPS, pH 6.7, 10 mM MgCl2, 5 mM DTT and CHAPS 0.03%. Reactions were initiated by the addition of ATP, the final reaction mixture consisted of 20 μM PIP2, 2 μM ATP, 0.5 μCi [γ-^33P] ATP, 13 nM PI3Kγ. Reactions were incubated for 120 min and terminated by the addition of 40 μL SPA beads suspended in quench buffer: 163 mM potassium phosphate pH 7.8, 20% glycerol, 25 mM EDTA. The final concentration of SPA beads is 1.0 mg/mL. After the plate sealing, plates were shaken overnight at room temperature and centrifuged at 1500 rpm for 10 min, the radioactivity of the product was determined by scintillation counting on Topcount (Perkin-Elmer). IC50 determination was performed by fitting the curve of percent of the solvent control activity versus the log of the inhibitor concentration using the GraphPad Prism 6.0 software.

The target of test [2] is PI3Kδ (p110δ/p85α) (Homo sapiens (Human), UniProt O00329). Description: PI3Kδ Scintillation Proximity Assay. In kind it is biochemical. The following applies: 20 μM PIP2, 2 μM ATP, 3.4 nM PI3Kδ, 120 min, room temperature.
Sequence of PI3Kδ (p110δ/p85α) (O00329 whole entry): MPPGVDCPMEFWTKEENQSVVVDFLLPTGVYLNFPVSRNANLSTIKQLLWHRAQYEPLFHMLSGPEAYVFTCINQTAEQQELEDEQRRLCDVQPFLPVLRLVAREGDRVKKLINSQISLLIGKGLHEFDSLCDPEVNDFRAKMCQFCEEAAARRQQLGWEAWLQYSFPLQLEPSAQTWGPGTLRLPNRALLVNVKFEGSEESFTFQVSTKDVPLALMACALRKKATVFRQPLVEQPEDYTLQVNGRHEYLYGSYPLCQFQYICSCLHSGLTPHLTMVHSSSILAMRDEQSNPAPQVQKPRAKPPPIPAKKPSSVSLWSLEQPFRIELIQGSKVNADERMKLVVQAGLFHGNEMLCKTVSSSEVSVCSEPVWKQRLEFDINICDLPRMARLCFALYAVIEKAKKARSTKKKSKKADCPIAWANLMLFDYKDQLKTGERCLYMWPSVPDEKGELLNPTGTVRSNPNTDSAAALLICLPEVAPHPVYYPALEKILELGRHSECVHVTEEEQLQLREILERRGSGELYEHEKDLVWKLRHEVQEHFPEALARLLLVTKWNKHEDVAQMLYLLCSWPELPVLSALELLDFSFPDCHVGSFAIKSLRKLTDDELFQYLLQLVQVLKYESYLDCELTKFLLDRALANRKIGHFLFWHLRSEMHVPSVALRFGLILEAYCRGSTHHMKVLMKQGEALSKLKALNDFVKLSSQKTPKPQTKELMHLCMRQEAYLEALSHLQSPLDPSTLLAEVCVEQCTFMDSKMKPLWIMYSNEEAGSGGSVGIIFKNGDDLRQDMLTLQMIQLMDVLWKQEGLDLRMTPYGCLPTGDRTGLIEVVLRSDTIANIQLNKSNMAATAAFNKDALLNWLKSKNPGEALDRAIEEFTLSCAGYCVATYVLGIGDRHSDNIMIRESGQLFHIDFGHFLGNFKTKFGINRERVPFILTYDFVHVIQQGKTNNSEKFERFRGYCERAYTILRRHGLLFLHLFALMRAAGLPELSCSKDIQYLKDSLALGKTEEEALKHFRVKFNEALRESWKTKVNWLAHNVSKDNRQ
Sequence of PI3Kδ (p110δ/p85α) (P27986 whole entry partner): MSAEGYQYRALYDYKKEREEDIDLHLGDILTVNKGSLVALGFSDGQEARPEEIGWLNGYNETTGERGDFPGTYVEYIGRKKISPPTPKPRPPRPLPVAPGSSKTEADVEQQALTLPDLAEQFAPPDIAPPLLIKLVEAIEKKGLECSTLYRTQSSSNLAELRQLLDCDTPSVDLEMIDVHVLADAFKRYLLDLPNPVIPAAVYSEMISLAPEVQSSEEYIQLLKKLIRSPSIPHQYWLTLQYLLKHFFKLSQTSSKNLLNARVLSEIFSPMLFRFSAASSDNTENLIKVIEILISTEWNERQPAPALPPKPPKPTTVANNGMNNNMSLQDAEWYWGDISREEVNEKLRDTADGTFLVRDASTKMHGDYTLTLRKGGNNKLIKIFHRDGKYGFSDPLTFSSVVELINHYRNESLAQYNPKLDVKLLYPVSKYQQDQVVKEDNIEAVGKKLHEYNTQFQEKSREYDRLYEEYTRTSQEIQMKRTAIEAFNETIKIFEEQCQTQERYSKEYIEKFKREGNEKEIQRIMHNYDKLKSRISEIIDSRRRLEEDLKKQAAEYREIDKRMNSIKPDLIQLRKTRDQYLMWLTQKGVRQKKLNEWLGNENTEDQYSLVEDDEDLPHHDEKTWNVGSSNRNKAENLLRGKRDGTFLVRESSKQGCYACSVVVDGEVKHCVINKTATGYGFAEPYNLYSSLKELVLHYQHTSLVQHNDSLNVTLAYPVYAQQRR
Source text: Example C. PI3Kδ Scintillation Proximity Assay
Materials: [γ-^33P]ATP (10 mCi/mL) and Wheat Germ Agglutinin (WGA) YSi SPA Scintillation Beads was purchased from Perkin Elmer (Waltham, Mass.). Lipid kinase substrate, D-myo-Phosphatidylinositol 4,5-bisphosphate (PtdIns(4,5)P2)D (+)-sn-1,2-di-O-octanoylglyceryl, 3-O-phospho linked (PIP2), CAS 204858-53-7, was purchased from Echelon Biosciences (Salt Lake City, Utah). PI3Kδ (p110δ/p85α) Recombinant Human Protein was purchased from Eurofins (St Charles, Mo.). ATP, MgCl2, DTT, EDTA, MOPS and CHAPS were purchased from Sigma Aldrich (St. Louis, Mo.).
as §1, with “PI3K6” for “PI3Kγ”, “3.4” for “13”, “PI3K6.” for “PI3Kγ.”, “(PerkinElmer).” for “(Perkin-Elmer).”

Test [3] concerns Phosphorylated Ribosomal Protein S6 (RPS6) in THP-1 cells. Description: THP-1 RPS6 ELISA Assay. In kind it is cell-based. The following applies: Homo sapiens; serum starved THP-1 cells, 2 hours with compound, then 10 nM MCP-1 for 15 minutes; Phospho-RPS6 ELISA; read-out: PI3Kγ_THP1_RPS6_ELISA IC50. Here is the method: Example A. THP-1 RPS6 ELISA Assay
To measure the Phosphorylated Ribosomal Protein S6 (RPS6) in cell lysates, THP-1 cells (Human Acute Monocytic Leukemia) are purchased from ATCC (Manassas, Va.) and maintained in RPMI with 10% FBS (Gibco/Life Technologies, Carlsbad, Calif.). For the assay, THP-1 cells are serum starved overnight in RPMI, then plated in RPMI (2×10^5 cells/well in 90 μL) into 96-well flat-bottom tissue culture treated plates (Corning, Corning, N.Y.), in the presence or absence of a concentration range of test compounds. Covered plates are incubated for 2 hours at 37° C., 5% CO2 then treated with or without 10 nM MCP-1 (MYBioSource, San Diego, Calif.) for 15 minutes at 37° C., 5% CO2. Plates are centrifuged at 1600 RPM and supernatants are removed. Cells are lysed in Lysis Buffer (Cell Signaling, Danvers, Mass.) with Protease Inhibitor (Calbiochem/EMD, Germany), PMSF (Sigma, St Louis Mo.), HALTS (Thermo Fisher, Rockford, Ill.) for 30 min on wet ice. Cell lysates are frozen at −80 OC before testing. The lysates are tested in the Human/Mouse/Rat Phospho-RPS6 ELISA (R&D Systems, Inc. Minn, Minn.). The plate is measured using a microplate reader (SpectraMax M5—Molecular Devices, LLC Sunnyvale, Calif.) set to 450 nm with a wavelength correction of 540. IC50 determination is performed by fitting the curve of inhibitor percent inhibition versus the log of the inhibitor concentration using the GraphPad Prism 5.0 software.

Sequence of PI3Kγ (p110γ) (P48736 whole entry): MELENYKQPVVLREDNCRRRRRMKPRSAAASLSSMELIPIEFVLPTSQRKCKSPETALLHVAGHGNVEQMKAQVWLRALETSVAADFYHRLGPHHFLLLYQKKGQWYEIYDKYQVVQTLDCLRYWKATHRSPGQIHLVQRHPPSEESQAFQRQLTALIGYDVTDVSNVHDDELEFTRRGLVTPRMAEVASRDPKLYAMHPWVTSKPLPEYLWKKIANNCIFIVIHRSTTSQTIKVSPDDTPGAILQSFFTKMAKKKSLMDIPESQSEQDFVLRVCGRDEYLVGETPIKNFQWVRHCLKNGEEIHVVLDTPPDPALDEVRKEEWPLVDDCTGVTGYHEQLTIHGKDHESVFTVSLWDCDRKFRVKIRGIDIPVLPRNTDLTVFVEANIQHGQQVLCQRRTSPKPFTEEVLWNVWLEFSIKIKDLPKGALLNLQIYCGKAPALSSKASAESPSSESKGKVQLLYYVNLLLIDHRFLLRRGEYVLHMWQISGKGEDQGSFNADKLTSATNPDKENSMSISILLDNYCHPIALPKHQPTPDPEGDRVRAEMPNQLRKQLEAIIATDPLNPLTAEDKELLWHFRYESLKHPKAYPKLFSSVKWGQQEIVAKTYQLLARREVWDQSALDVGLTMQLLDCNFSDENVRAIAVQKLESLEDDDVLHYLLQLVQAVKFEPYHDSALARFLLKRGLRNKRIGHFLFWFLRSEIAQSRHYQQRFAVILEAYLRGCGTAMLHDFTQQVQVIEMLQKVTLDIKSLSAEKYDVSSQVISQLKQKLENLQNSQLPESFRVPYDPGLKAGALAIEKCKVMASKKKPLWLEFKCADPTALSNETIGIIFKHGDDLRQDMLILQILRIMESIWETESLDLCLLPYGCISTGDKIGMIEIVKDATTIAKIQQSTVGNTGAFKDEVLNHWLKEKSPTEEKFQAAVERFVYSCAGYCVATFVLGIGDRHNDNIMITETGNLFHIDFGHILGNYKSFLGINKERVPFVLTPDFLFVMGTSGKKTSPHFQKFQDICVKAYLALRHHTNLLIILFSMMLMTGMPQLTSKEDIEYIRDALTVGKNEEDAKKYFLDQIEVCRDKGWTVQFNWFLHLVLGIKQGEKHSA

In general, IC50 refers to the concentration that gives 50% inhibition. For `Cc1cc(-c2cnc(N)cn2)cc2cn(C(C)C3CC3)nc12` (centres unmarked) [Example 5, 5-(2-(1-Cyclopropylethyl)-7-methyl-2H-indazol-5-yl)pyrazin-2-amine, trifluoroacetate], the results for the IC50 in test [1] and in test [2] were 100 to 500 nM and at least 2000 nM, respectively.

For `C[C@@H](C1CC1)N1Cc2cc(-c3cnc(N)c(-n4cncn4)n3)cc(S(C)(=O)=O)c2C1=O` [Example 12, (S)-5-(5-Amino-6-(1H-1,2,4-triazol-1-yl)pyrazin-2-yl)-2-(1-cyclopropylethyl)-7-(methylsulfonyl)isoindolin-1-one, trifluoroacetate salt], the results for the IC50 in test [3], in test [1] and in test [2] were at least 1000 nM, at most 100 nM and 500 to 2000 nM, respectively.

Take `C[C@@H](C1CC1)N1Cc2cc(-c3cnc(N)c(-c4cn[nH]c4)n3)cc(S(C)(=O)=O)c2C1=O` [Example 11, (S)-5-(5-Amino-6-(1H-pyrazol-4-yl)pyrazin-2-yl)-2-(1-cyclopropylethyl)-7-(methylsulfonyl)isoindolin-1-one, trifluoroacetate salt]: the IC50 in test [1] was at most 100 nM; in test [2], 500 to 2000 nM.

`CC(C)NC(=O)c1nc(-c2ccc3c(c2)CN([C@@H](C)C2CC2)C3=O)cnc1N` [Example 2, (S)-3-Amino-6-(2-(1-cyclopropylethyl)-1-oxoisoindolin-5-yl)-N-isopropylpyrazine-2-carboxamide trifluoroacetate salt]: the IC50 in test [3] was at least 1000 nM; in test [1] it was at most 100 nM; in test [2], 500 to 2000 nM.

Turning to `C[C@@H](C1CC1)N1Cc2cc(-c3cnc(N)c(C4CN(C(=O)C5(C(F)(F)F)CC5)C4)n3)ccc2C1=O` [Example 13, (S)-5-(5-Amino-6-(1-(1-(trifluoromethyl)cyclopropane-1-carbonyl)azetidin-3-yl)pyrazin-2-yl)-2-(1-cyclopropylethyl)isoindolin-1-one, 0.7× trifluoroacetate salt], the concentration for half-maximal inhibition (IC50) in test [1] is at most 100 nM; in test [2], at least 2000 nM.

For the molecule `C[C@@H](C1CC1)N1Cc2cc(-c3cnc(N)c(C(=O)NC4CCOCC4)n3)cc(S(C)(=O)=O)c2C1=O` [Example 3, (S)-3-Amino-6-(2-(1-cyclopropylethyl)-7-(methylsulfonyl)-1-oxoisoindolin-5-yl)-N-(tetrahydro-2H-pyran-4-yl)pyrazine-2-carboxamide trifluoroacetate salt], the IC50 is 100 to 500 nM in test [3], at most 100 nM in test [1] and 100 to 500 nM in test [2].

Turning to `Cc1n[nH]cc1-c1nc(-c2cc3c(c(S(C)(=O)=O)c2)C(=O)N([C@@H](C)C2CC2)C3)cnc1N` [Example 10, (S)-5-(5-Amino-6-(3-methyl-1H-pyrazol-4-yl)pyrazin-2-yl)-2-(1-cyclopropylethyl)-7-(methylsulfonyl)isoindolin-1-one, trifluoroacetate salt], the IC50 in test [3] was at least 1000 nM; in test [1], at most 100 nM; in test [2], 500 to 2000 nM.

Regarding `CC(C)NC(=O)c1nc(-c2cc3c(c(S(C)(=O)=O)c2)C(=O)N([C@@H](C)C2CC2)C3)cnc1N` [Example 4, (S)-3-Amino-6-(2-(1-cyclopropylethyl)-7-(methylsulfonyl)-1-oxoisoindolin-5-yl)-N-isopropylpyrazine-2-carboxamide trifluoroacetate salt], the values for the IC50 in test [3], in test [1] and in test [2] were at least 1000 nM, at most 100 nM and 500 to 2000 nM, respectively.

Consider `C[C@@H](C1CC1)N1Cc2cc(-c3cnc(N)c(-c4ccnn4C)n3)cc(S(C)(=O)=O)c2C1=O` [Example 7, (S)-5-(5-Amino-6-(1-methyl-1H-pyrazol-5-yl)pyrazin-2-yl)-2-(1-cyclopropylethyl)-7-(methylsulfonyl)isoindolin-1-one, trifluoroacetate salt], for which the 50% inhibitory concentration (IC50) in test [3] was at least 1000 nM; in test [1] it was at most 100 nM; in test [2] it was 500 to 2000 nM.

For `Cc1ncc(-c2nc(-c3cc4c(c(S(C)(=O)=O)c3)C(=O)N([C@@H](C)C3CC3)C4)cnc2N)s1` [Example 9, (S)-5-(5-Amino-6-(2-methylthiazol-5-yl)pyrazin-2-yl)-2-(1-cyclopropylethyl)-7-(methylsulfonyl)isoindolin-1-one, trifluoroacetate salt], the IC50 in test [3] is 500 to 1000 nM; in test [1], at most 100 nM; in test [2], 100 to 500 nM.

On to `C[C@@H](C1CC1)N1Cc2cc(-c3cnc(N)c(-c4cnn(C)c4)n3)cc(S(C)(=O)=O)c2C1=O` [Example 8, (S)-5-(5-Amino-6-(1-methyl-1H-pyrazol-4-yl)pyrazin-2-yl)-2-(1-cyclopropylethyl)-7-(methylsulfonyl)isoindolin-1-one, trifluoroacetate salt], for which the figures for the IC50 in test [3], in test [1] and in test [2] were 500 to 1000 nM, at most 100 nM and 500 to 2000 nM, respectively.

With `C[C@@H](C1CC1)N1Cc2cc(-c3cnc(N)c(C(=O)NC4CCOCC4)n3)ccc2C1=O` [Example 1, (S)-3-Amino-6-(2-(1-cyclopropylethyl)-1-oxoisoindolin-5-yl)-N-(tetrahydro-2H-pyran-4-yl)pyrazine-2-carboxamide trifluoroacetate salt], the IC50 in test [3] was at least 1000 nM; in test [1] it was at most 100 nM; in test [2], 500 to 2000 nM.

With `CC(C1CC1)n1nc2ccc(-c3cnc(N)cn3)cc2n1` (centres unmarked) [Example 6, 5-(2-(1-Cyclopropylethyl)-2H-benzo[d][1,2,3]triazol-5-yl)pyrazin-2-amine, trifluoroacetate], the IC50 in test [1] is 500 to 2000 nM; in test [2] it was at least 2000 nM.
